Results taken from the supplement of paper PMC9663587.

Key:
Assay in all cases: increase in dead-cell fraction, 72 h; higher = more death;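 note: breast cancer cell lines in 384-well plates, stained with Hoechst plus LIVE/DEAD far red dye and imaged, cells above an LDR intensity threshold counted dead, Hoechst-negative corpses included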
THZ-P1-2 = compound: CN(C)C/C=C/C(=O)NC1=CC=C(C=C1)C(=O)NC2=CC=CC(=C2)NC3=NC=NC(=C3)C4=CNC5=CC=CC=C54 [THZ-P1-2]
[1] = compound: CCC1=CN=CN=C1N2CCN(CC2)CC3=NC4=C(N3)C=C(C=C4)C(F)(F)F
R0-3306 = compound: C1=CC2=C(C=CC(=C2)C=C3C(=O)NC(=NCC4=CC=CS4)S3)N=C1 [R0-3306]
Taselisib/GDC0032 = compound: Cc1nc(-c2cn3c(n2)-c2ccc(-c4cnn(C(C)(C)C(N)=O)c4)cc2OCC3)n(C(C)C)n1 [Taselisib/GDC0032]
[2] = compound: CC(=O)Nc1cccc(-n2c(=O)n(C3CC3)c(=O)c3c(Nc4ccc(I)cc4F)n(C)c(=O)c(C)c32)c1
senexin b = compound: CN1CCN(C(=O)c2ccc3cc(CCNc4ncnc5ccc(C#N)cc45)ccc3c2)CC1 [senexin b]
Cabozantinib = compound: COc1cc2nccc(Oc3ccc(NC(=O)C4(C(=O)Nc5ccc(F)cc5)CC4)cc3)c2cc1OC [Cabozantinib]
Pictilisib/GDC0941 = compound: CS(=O)(=O)N1CCN(Cc2cc3nc(-c4cccc5[nH]ncc45)nc(N4CCOCC4)c3s2)CC1 [Pictilisib/GDC0941]
AZD1775 = compound: C=CCn1c(=O)c2cnc(Nc3ccc(N4CCN(C)CC4)cc3)nc2n1-c1cccc(C(C)(C)O)n1 [AZD1775]
Alpelisib/BYL719 = compound: Cc1nc(NC(=O)N2CCC[C@H]2C(N)=O)sc1-c1ccnc(C(C)(C)C(F)(F)F)c1 [Alpelisib/BYL719]
Volasertib/BI6727 = compound: CC[C@@H]1C(=O)N(C)c2cnc(Nc3ccc(C(=O)N[C@H]4CC[C@H](N5CCN(CC6CC6)CC5)CC4)cc3OC)nc2N1C(C)C [Volasertib/BI6727]
[3] = compound: COc1ccc2c(c1)[C@]1(C[C@H]1c1ccc3c(/C=C/c4ccc(CN5C[C@@H](C)O[C@@H](C)C5)cc4)n[nH]c3c1)C(=O)N2

## AU565
THZ-P1-2; 0.01 µM
  increase in dead-cell fraction: -0.0013
THZ-P1-2; 0.03162 µM
  increase in dead-cell fraction: -0.0105
THZ-P1-2; 0.1 µM
  increase in dead-cell fraction: 0.0091
THZ-P1-2; 0.3162 µM
  increase in dead-cell fraction: -0.0029
THZ-P1-2; 1 µM
  increase in dead-cell fraction: -0.0001
THZ-P1-2; 3.162 µM
  increase in dead-cell fraction: -0.0022
THZ-P1-2; 10 µM
  increase in dead-cell fraction: 0.569
[1]; 0.001 µM
  increase in dead-cell fraction: 0.0018
[1]; 0.003162 µM
  increase in dead-cell fraction: -0.0015
[1]; 0.01 µM
  increase in dead-cell fraction: -0.0042
[1]; 0.03162 µM
  increase in dead-cell fraction: -0.0013
[1]; 0.1 µM
  increase in dead-cell fraction: 0.0031
[1]; 0.3162 µM
  increase in dead-cell fraction: -0.0005
[1]; 1 µM
  increase in dead-cell fraction: 0.001
[1]; 3.162 µM
  increase in dead-cell fraction: 0.0056
[1]; 10 µM
  increase in dead-cell fraction: 0.0157
R0-3306; 0.001 µM
  increase in dead-cell fraction: -0.0007
R0-3306; 0.003162 µM
  increase in dead-cell fraction: 0.0211
R0-3306; 0.01 µM
  increase in dead-cell fraction: 0.0272
R0-3306; 0.03162 µM
  increase in dead-cell fraction: 0.005
R0-3306; 0.1 µM
  increase in dead-cell fraction: 0.0121
R0-3306; 0.3162 µM
  increase in dead-cell fraction: 0.0139
R0-3306; 1 µM
  increase in dead-cell fraction: 0.0267
R0-3306; 3.162 µM
  increase in dead-cell fraction: 0.0545
R0-3306; 10 µM
  increase in dead-cell fraction: 0.329
Taselisib/GDC0032; 0.001 µM
  increase in dead-cell fraction: 0.0087
Taselisib/GDC0032; 0.003162 µM
  increase in dead-cell fraction: 0.0153
Taselisib/GDC0032; 0.01 µM
  increase in dead-cell fraction: 0.0378
Taselisib/GDC0032; 0.03162 µM
  increase in dead-cell fraction: 0.0611
Taselisib/GDC0032; 0.1 µM
  increase in dead-cell fraction: 0.0674
Taselisib/GDC0032; 0.3162 µM
  increase in dead-cell fraction: 0.0853
Taselisib/GDC0032; 1 µM
  increase in dead-cell fraction: 0.0898
Taselisib/GDC0032; 3.162 µM
  increase in dead-cell fraction: 0.0794
Taselisib/GDC0032; 10 µM
  increase in dead-cell fraction: 0.207
[2]; 0.0001 µM
  increase in dead-cell fraction: 0.0026
[2]; 0.0003162 µM
  increase in dead-cell fraction: 0.0025
[2]; 0.001 µM
  increase in dead-cell fraction: 0.0021
[2]; 0.003162 µM
  increase in dead-cell fraction: 0.0022
[2]; 0.01 µM
  increase in dead-cell fraction: 0.0009
[2]; 0.03162 µM
  increase in dead-cell fraction: -0.0017
[2]; 0.1 µM
  increase in dead-cell fraction: -0.0015
[2]; 0.3162 µM
  increase in dead-cell fraction: -0.0026
[2]; 1 µM
  increase in dead-cell fraction: 0.0032
Senexin b; 0.001 µM
  increase in dead-cell fraction: -0.0057
Senexin b; 0.003162 µM
  increase in dead-cell fraction: -0.0066
Senexin b; 0.01 µM
  increase in dead-cell fraction: -0.0019
Senexin b; 0.03162 µM
  increase in dead-cell fraction: -0.0056
Senexin b; 0.1 µM
  increase in dead-cell fraction: -0.0146
Senexin b; 0.3162 µM
  increase in dead-cell fraction: 0.0036
Senexin b; 1 µM
  increase in dead-cell fraction: 0.0078
Senexin b; 3.162 µM
  increase in dead-cell fraction: 0.0105
Senexin b; 10 µM
  increase in dead-cell fraction: -0.0068
Cabozantinib; 0.001 µM
  increase in dead-cell fraction: 0.0017
Cabozantinib; 0.003162 µM
  increase in dead-cell fraction: 0.0057
Cabozantinib; 0.01 µM
  increase in dead-cell fraction: 0.0018
Cabozantinib; 0.03162 µM
  increase in dead-cell fraction: -0.0008
Cabozantinib; 0.1 µM
  increase in dead-cell fraction: -0.003
Cabozantinib; 0.3162 µM
  increase in dead-cell fraction: 0.0025
Cabozantinib; 1 µM
  increase in dead-cell fraction: 0.0028
Cabozantinib; 3.162 µM
  increase in dead-cell fraction: -0.0021
Cabozantinib; 10 µM
  increase in dead-cell fraction: 0.0274
Pictilisib/GDC0941; 0.001 µM
  increase in dead-cell fraction: 0.0052
Pictilisib/GDC0941; 0.003162 µM
  increase in dead-cell fraction: 0.007
Pictilisib/GDC0941; 0.01 µM
  increase in dead-cell fraction: 0.0001
Pictilisib/GDC0941; 0.03162 µM
  increase in dead-cell fraction: 0.0063
Pictilisib/GDC0941; 0.1 µM
  increase in dead-cell fraction: 0.0196
Pictilisib/GDC0941; 0.3162 µM
  increase in dead-cell fraction: 0.0368
Pictilisib/GDC0941; 1 µM
  increase in dead-cell fraction: 0.0866
Pictilisib/GDC0941; 3.162 µM
  increase in dead-cell fraction: 0.126
Pictilisib/GDC0941; 10 µM
  increase in dead-cell fraction: 0.19
AZD1775; 0.001 µM
  increase in dead-cell fraction: 0.0224
AZD1775; 0.003162 µM
  increase in dead-cell fraction: 0.0098
AZD1775; 0.01 µM
  increase in dead-cell fraction: 0.0075
AZD1775; 0.03162 µM
  increase in dead-cell fraction: 0.029
AZD1775; 0.1 µM
  increase in dead-cell fraction: 0.0256
AZD1775; 0.3162 µM
  increase in dead-cell fraction: 0.0481
AZD1775; 1 µM
  increase in dead-cell fraction: 0.119
AZD1775; 3.162 µM
  increase in dead-cell fraction: 0.184
AZD1775; 10 µM
  increase in dead-cell fraction: 0.472
Alpelisib/BYL719; 0.001 µM
  increase in dead-cell fraction: 0.0064
Alpelisib/BYL719; 0.003162 µM
  increase in dead-cell fraction: 0.0041
Alpelisib/BYL719; 0.01 µM
  increase in dead-cell fraction: 0.0062
Alpelisib/BYL719; 0.03162 µM
  increase in dead-cell fraction: 0.0114
Alpelisib/BYL719; 0.1 µM
  increase in dead-cell fraction: 0.0193
Alpelisib/BYL719; 0.3162 µM
  increase in dead-cell fraction: 0.0259
Alpelisib/BYL719; 1 µM
  increase in dead-cell fraction: 0.0468
Alpelisib/BYL719; 3.162 µM
  increase in dead-cell fraction: 0.0789
Alpelisib/BYL719; 10 µM
  increase in dead-cell fraction: 0.222
Volasertib/BI6727; 0.0001 µM
  increase in dead-cell fraction: -0.0025
Volasertib/BI6727; 0.0003162 µM
  increase in dead-cell fraction: 0.0017
Volasertib/BI6727; 0.001 µM
  increase in dead-cell fraction: -0.0005
Volasertib/BI6727; 0.003162 µM
  increase in dead-cell fraction: 0.0085
Volasertib/BI6727; 0.01 µM
  increase in dead-cell fraction: 0.284
Volasertib/BI6727; 0.03162 µM
  increase in dead-cell fraction: 0.353
Volasertib/BI6727; 0.1 µM
  increase in dead-cell fraction: 0.412
Volasertib/BI6727; 0.3162 µM
  increase in dead-cell fraction: 0.353
Volasertib/BI6727; 1 µM
  increase in dead-cell fraction: 0.152
[3]; 0.0001 µM
  increase in dead-cell fraction: 0.0001
[3]; 0.0003162 µM
  increase in dead-cell fraction: -0.0015
[3]; 0.001 µM
  increase in dead-cell fraction: 0.0053
[3]; 0.003162 µM
  increase in dead-cell fraction: 0.016
[3]; 0.01 µM
  increase in dead-cell fraction: 0.139
[3]; 0.03162 µM
  increase in dead-cell fraction: 0.126
[3]; 0.1 µM
  increase in dead-cell fraction: 0.108
[3]; 0.3162 µM
  increase in dead-cell fraction: 0.0794
[3]; 1 µM
  increase in dead-cell fraction: 0.121
